This passage reports inhibition results from PMC7064401 (Journal of molecular microbiology and biotechnology, 2019).

The target of the experiment is BexImpX (Pseudobdellovibrio exovorus, UniProt M4VA25). Put plainly: inhibition of riboflavin uptake in E. coli expressing impX, fluorescence. Type of experiment: cell-based. The settings on record: read-out: % inhibition at 0.9 mM.

SMILES strings stand for the structures. A value given as a limit tells only on which side of the number the result lay.

With `Cc1ncc(C[n+]2csc(CCOP(=O)(O)OP(=O)(O)O)c2C)c(N)n1` [thiamine pyrophosphate], the inhibition at 900 µM was below 5%.
Regarding `NC(=O)c1cccnc1` [nicotinamide], the inhibition at 900 µM was below 5%.
